In patent US3956068A, “Antibiotic G-52 and method for the production thereof” (Schering Corporation, priority 1975, dated 1976):
Counter-ions that a name gives are not always drawn.

Legend:
[1] = test system: Staphylococcus aureus A.T.C.C. 6538P; test: Microbiological assay, standard disc plate assay; assay type: cell-based; conditions: against the standard antibiotic base (1000 mcg/mg)
Excerpt: 6538P as the test organism.

[2] = test system: mice (CF-1); test: Acute toxicity in mice; assay type: in vivo; conditions: sulfate salt
Procedure: ^b The acute toxicity of Antibiotic G-52 in the form of the sulfate
salt is determined in the standard manner by administration of the
antibiotic to mice (CF-1) intravenously, subcutaneously and
intraperitoneally. The results are analyzed by standard probit procedures
to determine the LD50 values with 95% confidence limits.

[3] = test system: Escherichia coli 578; test: In vitro antibacterial activity, minimum inhibitory concentration; assay type: cell-based; conditions: Tryptose phosphate broth at pH 7.2
Excerpt: (§1) In vitro Antibacterial Activity
(§2) Minimum Inhibitory Concentration
(§3) Test Medium: Tryptose phosphate broth at pH 7.2.

[4] = test system: Salmonella paratyphi 13311; test: as above; assay type: cell-based; conditions: Tryptose phosphate broth at pH 7.2
Excerpt: as §1, §2, §3

[5] = test system: Staphylococcus aureus 45; test: as above; assay type: cell-based; conditions: Tryptose phosphate broth at pH 7.2
Excerpt: as §1, §2, §3

[6] = test system: Staphylococcus aureus 209P; test: as above; assay type: cell-based; conditions: Tryptose phosphate broth at pH 7.2
Excerpt: as §1, §2, §3

[7] = test system: Pseudomonas aeruginosa 236 - GR; test: as above; assay type: cell-based; conditions: Tryptose phosphate broth at pH 7.2
Excerpt: as §1, §2, §3

[8] = test system: Proteus mirabilis 8019; test: as above; assay type: cell-based; conditions: Tryptose phosphate broth at pH 7.2
Excerpt: as §1, §2, §3

[9] = test system: Streptococcus pyogenes C; test: as above; assay type: cell-based; conditions: Tryptose phosphate broth at pH 7.2
Excerpt: as §1, §2, §3

[10] = test system: Pseudomonas aeruginosa 130 - GR; test: as above; assay type: cell-based; conditions: Tryptose phosphate broth at pH 7.2
Excerpt: as §1, §2, §3

[11] = test system: Escherichia coli 11775; test: as above; assay type: cell-based; conditions: Tryptose phosphate broth at pH 7.2
Excerpt: as §1, §2, §3

[12] = test system: Klebsiella pneumoniae Ad 17 - kR; test: as above; assay type: cell-based; conditions: Tryptose phosphate broth at pH 7.2
Excerpt: as §1, §2, §3

[13] = Solubility
[14] = test system: Escherichia coli; test: In vivo protective activity in mice; set-up: species or system Mice (Carworth Farms CF-1); conditions: S.C., single dose of antibiotic (sulfate) 1 hour after intraperitoneal infection, survivors at 48 hours
Procedure: (§4) In vivo Activity of Antibiotic G-52 in Mice
(§5) ^a Mice (Carworth Farms CF-1 weighing about 18 - 20 grams) are treate
(§6) with a single dose of antibiotic (sulfate) one (1) hour after an
(§7) intraperitoneal infection with a lethal (10^7 organisms) quantity of
(§8) the infectious organism. The number of survivors are determined 48 hours
(§9) after infection and the data analyzed by standard probit procedures to
(§10) determine the PD50 values with 95% confidence limits.

[15] = test system: Staphylococcus aureus Gray; test: In vivo protective activity in mice; set-up: species or system Mice (Carworth Farms CF-1); conditions: S.C., single dose of antibiotic (sulfate) 1 hour after intraperitoneal infection, survivors at 48 hours
Procedure: as §4, §5, §6, §7, §8, §9, §10

[16] = test system: Pseudomonas aeruginosa; test: In vivo protective activity in mice; set-up: species or system Mice (Carworth Farms CF-1); conditions: S.C., single dose of antibiotic (sulfate) 1 hour after intraperitoneal infection, survivors at 48 hours
Procedure: as §4, §5, §6, §7, §8, §9, §10

[17] = Stability to boiling in buffer; assay type: physicochemical
Excerpt: Further, the antibiotic is stable to boiling for at least thirty (30) minutes in MacIlvaines buffer from pH 2 - 8 and in sodium hydroxide-boric acid buffer from pH 8 - 10.

CNCC1=CCC(N)C(OC2C(N)CC(N)C(OC3OCC(C)(O)C(NC)C3O)C2O)O1 (centres unmarked) [Antibiotic G-52 sulfate]
potency (microbiological assay) [1]: about 675 mcg/mg | potency (microbiological assay) ([1]; listed as Antibiotic G-52 Sulfate): 660 mcg/mg

CNCC1=CC[C@@H](N)[C@@H](O[C@H]2[C@H](O)[C@@H](O[C@H]3OC[C@](C)(O)[C@H](NC)[C@H]3O)[C@H](N)C[C@@H]2N)O1 [Antibiotic G-52]
potency (microbiological assay) ([1]; listed as Antibiotic G-52 Base): about 1000 mcg/mg | LD50 ([2]; I.P.): 200 mg/kg | LD50 ([2]; I.V.): 50 mg/kg | LD50 ([2]; S.C.): 400 mg/kg | Minimum Inhibitory Concentration (MIC) [3]: 7.5 µg/mL | Minimum Inhibitory Concentration (MIC) [4]: 17.5 µg/mL | Minimum Inhibitory Concentration (MIC) [5]: 0.8 µg/mL | Minimum Inhibitory Concentration (MIC) [6]: 0.3 µg/mL | Minimum Inhibitory Concentration (MIC) [7]: 25 µg/mL | Minimum Inhibitory Concentration (MIC) [8]: 7.5 µg/mL | Minimum Inhibitory Concentration (MIC) [9]: 25 µg/mL | Minimum Inhibitory Concentration (MIC) [10]: 25 µg/mL | Minimum Inhibitory Concentration (MIC) [11]: 3.0 µg/mL | Minimum Inhibitory Concentration (MIC) [12]: 0.8 µg/mL | solubility in polar organic solvents ([13]; lower alcohols, dimethylformamide, dimethylsulfoxide, pyridine): some degree of solubility in most polar organic solvents | solubility in water ([13]; water): very soluble in water | PD50 [14]: 2.5 mg/kg | PD50 [15]: 2.5 mg/kg | PD50 [16]: 1.5 mg/kg | stable to boiling ([17]; MacIlvaines buffer, pH 2 - 8): ≥ 30 min | stable to boiling ([17]; sodium hydroxide-boric acid buffer, pH 8 - 10): ≥ 30 min
